Experimental data: patent publication US12583820B2, “Broad spectrum antivirals against coronavirus” (priority 2020, dated 2026)
Where two headings read alike, the source gives them in different places.

Legend:
[1] = target: T1, 3CLpro of SARS-CoV-2 (Severe acute respiratory syndrome coronavirus 2, UniProt P0DTD1); assay: biochemical; type: biochemical
T1 construct: The codon-optimized cDNA of full length of 3CLpro of SARS-CoV-2; 6xHis (N); made in house; pET-28a(+) vector (points to E. coli, my inference)

[2] = tested on: MERS-CoV; assay: microbe, parasite or virus in culture; type: cell-based
[3] = target: 3CLpro of MERS-CoV (Middle East respiratory syndrome-related coronavirus, UniProt K9N7C7); assay: biochemical; type: biochemical
[4] = tested on: NV in the replicon harboring cells (HG23 cells); assay: microbe, parasite or virus in culture; type: cell-based, norovirus (NV)
[5] = tested on: HG23 cells
[6] = tested on: SARS-CoV-2; assay: microbe, parasite or virus in culture; type: cell-based
[7] = target: NV 3CLpro (Norovirus, UniProt Q83883); assay: biochemical; type: biochemical
[8] = in vitro; conditions: human
[9] = target: 3CLpro of SARS-CoV (Severe acute respiratory syndrome coronavirus, UniProt P0C6X7); type: biochemical; conditions: read-out: IC50 in enzyme assay (μM) SARS-CoV
[10] = Nonspecific cytotoxic effects (CC50), CytoTox 96 kit; conditions: Huh-7, CRFK or CCL1 cells (confluent, 96-well plates)
[11] = tested on: FIPV; assay: microbe, parasite or virus in culture; type: cell-based; conditions: Alphacoronavirus 1, CRFK, read-out: EC50 in cell culture (μM) FIPV
[12] = tested on: MHV-1; assay: microbe, parasite or virus in culture; type: cell-based, mouse hepatitis virus (MHV); conditions: Murine coronavirus, read-out: EC50 in cell culture (μM) MHV
[13] = tested on: Huh-7, CRFK or CCL1 cells; assay: Nonspecific cytotoxic effects (CC50), CytoTox 96 kit; conditions: 72 h, 1 to 100 μM, Table 1
[14] = tested on: feline infectious peritonitis (FIP), a coronavirus-induced systemic disease; conditions: cited from earlier work
[15] = Norovirus, HG23, read-out: EC50 (μM) ± SD

NV 3CLpro, sequence (Q83883 1101-1281): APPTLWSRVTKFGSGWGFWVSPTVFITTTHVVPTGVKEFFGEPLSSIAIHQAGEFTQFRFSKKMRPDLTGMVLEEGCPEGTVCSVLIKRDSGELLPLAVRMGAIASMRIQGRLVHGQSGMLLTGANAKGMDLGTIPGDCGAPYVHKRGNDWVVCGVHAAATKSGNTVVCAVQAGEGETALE
3CLpro of MERS-CoV, sequence (K9N7C7 3248-3553 limits assumed): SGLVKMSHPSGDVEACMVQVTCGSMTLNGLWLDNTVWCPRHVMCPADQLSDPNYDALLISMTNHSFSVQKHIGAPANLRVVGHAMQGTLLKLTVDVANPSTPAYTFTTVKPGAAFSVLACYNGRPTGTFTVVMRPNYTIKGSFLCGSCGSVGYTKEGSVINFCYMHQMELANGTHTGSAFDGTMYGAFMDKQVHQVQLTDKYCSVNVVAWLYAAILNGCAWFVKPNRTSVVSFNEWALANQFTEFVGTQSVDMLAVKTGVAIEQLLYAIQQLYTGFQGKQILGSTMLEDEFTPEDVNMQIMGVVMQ

Compound: CC(C)C[C@H](NC(=O)OCC(C)(C)c1cccc(Cl)c1)C(=O)N[C@H](C=O)C[C@@H]1CCNC1=O [Compound 5g (Scheme 2)]
- IC50 ([1]; read-out: SARS-CoV-2 IC50 (μM) enzyme): 0.3 µM
- EC50 ([2]; read-out: MERS-CoV EC50 (μM) Cell culture): 0.05 µM
- IC50 ([3]; read-out: MERS-CoV IC50(μM) Enzyme): 0.08 µM
- EC50 ([4]; read-out: EC50 (μM) ± SD): 0.17 ± 0.05 µM
- CC50 [5]: > 100000 nM
- EC50 ([6]; read-out: SARS-CoV-2 EC50 (μM) Cell culture): 0.18 µM
- IC50 ([7]; read-out: IC50 (μM) ± SD): 0.27 ± 0.04 µM

Compound: CC(C)C[C@H](NC(=O)OC1(c2cccc(Cl)c2)CC1)C(=O)N[C@H](C=O)C[C@@H]1CCNC1=O [Compound 5r]
- EC50 [4, 15]: 0.65 ± 0.2 µM
- CC50 [8]: > 100000 nM
- IC50 [7]: 0.28 ± 0.03 µM

Compound: O=C[C@H](C[C@@H]1CCNC1=O)NC(=O)[C@H](CC1CCCCC1)NC(=O)OC/C=C/c1cccc(Cl)c1 [Compound 5s]
- EC50 [4, 15]: 0.06 ± 0.01 µM
- CC50 [8]: 24100 ± 600 nM
- IC50 [7]: 0.14 ± 0.01 µM

Compound: CC(C)C[C@H](NC(=O)OC/C=C/c1cccc(Cl)c1)C(=O)N[C@H](C=O)C[C@@H]1CCNC1=O [Compound 5t]
- EC50 [4, 15]: 0.08 ± 0.01 µM
- CC50 [8]: > 100000 nM
- IC50 [7]: 0.15 ± 0.05 µM

Compound: CCCCC1CCC(OC(=O)N[C@@H](CC(C)C)C(=O)N[C@H](C=O)C[C@@H]2CCNC2=O)CC1 (stereo partly drawn) [Compound 6e (Scheme 1), 4-butylcyclohexyl ((S)-4-methyl-1-oxo-1-(((S)-1-oxo-3-((S)-2-oxopyrrolidin-3-yl)propan-2-yl)amino)pentan-2-yl)carbamate]
- IC50 [1]: 0.8 µM
- IC50 ([3]; read-out: IC50 in enzyme assay (μM) MERS-CoV): 0.15 µM
- IC50 [9]: 0.9 µM
- CC50 at 72 h [10]: > 100000 nM
- EC50 [11]: 0.22 µM
- EC50 ([6]; Severe acute respiratory syndrome coronavirus 2, Vero C1008, read-out: EC50 in cell culture (μM) SARS-CoV-2): 0.1 µM
- EC50 [12]: 0.12 µM

Compound: CC(C)C[C@H](NC(=O)OCc1ccccc1)C(=O)N[C@@H](C[C@@H]1CCNC1=O)C(O)S(=O)(=O)[O-].[Na+] (some centres unmarked) [GC376, reference compound]
- CC50 [13]: > 100000 nM
- clinical efficacy in cats with feline infectious peritonitis (FIP) [14]: reversed the progression of FIP and resulted in clinical remission
